Data as given in patent publication EP4806900A2, “RAS INHIBITORS” (Revolution Medicines, Inc., priority 2019, dated 2021).
Values joined by “and” are separate entries in the source; they are usually repeats but may differ in a detail not shown here. Equal entries are not always repeated.

tested on: NCI-H358 (K-Ras G12C); assay: CellTiter-Glo cell viability assay, NCI-H358; assay type: cell-based, human; conditions: Homo sapiens, NCI-H358, Table 5; read-out: H358 Cell Viability assay data (K-Ras G12C, IC50)
Summary of the method: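 Compounds dispensed directly onto plated NCI-H358 cells; plates equilibrated to room temperature on day 5 before luminescence read-out. Signal normalized to mean DMSO control (%) and fitted by four-parameter logistic.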

Structure (SMILES) | IC50 [µM]
C=CC(=O)N1CC[C@H](C(=O)N(C)[C@H](C(=O)N[C@H]2Cc3cccc(c3)-c3ccc4c(c3)c(c(-c3cccnc3[C@H](C)OC)n4CC)CC(C)(C)COC(=O)[C@@H]3CCCN(N3)C2=O)C(C)C)C1 [Compound A114] | 0.1 to 1

same assay, conditions: Homo sapiens, NCI-H358, read-out: H358 Cell Viability assay data (K-Ras G12C, IC50, uM), Table 5

Structure (SMILES) | IC50 [µM]
C=CC(=O)N1CC[C@H](C(=O)N(C)[C@H](C(=O)N[C@H]2Cc3cc(O)cc(c3)-c3ccc4c(c3)c(c(-c3cnccc3[C@H](C)OC)n4CC)CC(C)(C)COC(=O)[C@@H]3CCCN(N3)C2=O)C(C)C)C1 [Compound A112] | < 0.01
CCn1c(-c2cnccc2COC)c2c3cc(ccc31)-c1ccnc(c1)C[C@H](NC(=O)[C@H](C(C)C)N(C)C(=O)[C@H]1CCN(C(=O)C#CCN(C)C)C1)C(=O)N1CCC[C@H](N1)C(=O)OCC(C)(C)C2 [Compound A130] | 0.01 to 0.1
C=CS(=O)(=O)N1CC[C@H](C(=O)N(C)[C@H](C(=O)N[C@H]2Cc3cc(O)cc(c3)-c3ccc4c(c3)c(c(-c3cccnc3[C@H](C)OC)n4CC)CC(C)(C)COC(=O)[C@@H]3CCCN(N3)C2=O)C(C)C)C1 [Compound A132] | < 0.01
CCn1c(-c2cccnc2COC)c2c3cc(ccc31)-c1cc(O)cc(c1)C[C@H](NC(=O)[C@H](C(C)C)N(C)C(=O)[C@H]1CCN(C(=O)C#CCOC)C1)C(=O)N1CCC[C@H](N1)C(=O)OCC(C)(C)C2 [Compound A135] | < 0.01
C=CC(=O)N1CC[C@H](C(=O)N(C)[C@H](C(=O)N[C@H]2Cc3cc(O)cc(c3)-c3ccc4c(c3)c(c(-c3cc(CN(C)C)cnc3COC)n4CC)CC(C)(C)COC(=O)[C@@H]3CCCN(N3)C2=O)C(C)C)C1 [Compound A149] | 0.01 to 0.1
CCn1c(-c2cccnc2COC)c2c3cc(ccc31)-c1cc(C)cc(c1)C[C@H](NC(=O)[C@H](C(C)C)N(C)C(=O)[C@H]1CCN(C(=O)C#CCN(C)C)C1)C(=O)N1CCC[C@H](N1)C(=O)OCC(C)(C)C2 [Compound A157] | < 0.01
C=CC(=O)N1CC[C@H](C(=O)N(C)[C@H](C(=O)N[C@H]2Cc3cc(O)cc(c3)-c3ccc4c(c3)c(c(-c3cccnc3)n4C3CC3)CC(C)(C)COC(=O)[C@@H]3CCCN(N3)C2=O)C(C)C)C1 [Compound A160] | 0.1 to 1
CCn1c(-c2cccnc2COC)c2c3cc(ccc31)-c1cc(O)cc(c1)C[C@H](NC(=O)[C@H](C(C)C)N(C)C(=O)[C@H]1CCN(C(=O)/C=C\CN(C)C)C1)C(=O)N1CCC[C@H](N1)C(=O)OCC(C)(C)C2 [Compound A161] | > 1

same assay, conditions: Table 5; read-out: H358 Cell Viability assay data (K-Ras G12C, IC50)

Structure (SMILES) | IC50
CCn1c(-c2ccccc2COC)c2c3cc(ccc31)-c1cc(O)cc(c1)C[C@H](NC(=O)[C@H](C(C)C)N(C)C(=O)[C@H]1CCN(C(=O)/C=C/CN(C)C)C1)C(=O)N1CCC[C@H](N1)C(=O)OCC(C)(C)C2 [Compound A79] | 0.01 to 0.1 µM
C=CC(=O)N1CC[C@H](C(=O)N(C)[C@H](C(=O)N[C@H]2Cc3cc(O)cc(c3)-c3ccc4c(c3)c(c(-c3c(CCOC)cccc3OC)n4CC)CC(C)(C)COC(=O)[C@@H]3CCCN(N3)C2=O)C(C)C)C1 [Compound A80] | 0.1 to 1 µM
C=CC(=O)N1CC[C@H](C(=O)N(C)[C@H](C(=O)N[C@H]2Cc3cc(O)cc(c3)-c3ccc4c(c3)c(c(-c3cc(F)cnc3COC)n4CC)CC(C)(C)COC(=O)[C@@H]3CCCN(N3)C2=O)C(C)C)C1 [Compound A82] | 0.01 to 0.1 µM
C=CC(=O)N1CC[C@H](C(=O)N(C)[C@H](C(=O)N[C@H]2Cc3cc(O)cc(c3)-c3ccc4c(c3)c(c(-c3cncc(COC)c3)n4CC)CC(C)(C)COC(=O)[C@@H]3CCCN(N3)C2=O)C(C)C)C1 [Compound A83] | 0.01 to 0.1 µM
C=CC(=O)N1CC[C@H](C(=O)N(C)[C@H](C(=O)N[C@H]2Cc3cc(O)cc(c3)-c3ccc4c(c3)c(c(-c3ncccc3COC)n4CC)CC(C)(C)COC(=O)[C@@H]3CCCN(N3)C2=O)C(C)C)C1 [Compound A84] | 0.1 to 1 µM
C=CC(=O)N1CC[C@H](C(=O)N(C)[C@H](C(=O)N[C@H]2Cc3cc(O)cc(c3)-c3ccc4c(c3)c(c(-c3nccnc3COC)n4CC)CC(C)(C)COC(=O)[C@@H]3CCCN(N3)C2=O)C(C)C)C1 [Compound A85] | 0.1 to 1 µM
C=CC(=O)N1CC[C@H](C(=O)N(C)[C@H](C(=O)N[C@H]2Cc3cc(O)cc(c3)-c3ccc4c(c3)c(c(-c3ccncc3)n4C(C)(C)C#N)CC(C)(C)COC(=O)[C@@H]3CCCN(N3)C2=O)C(C)C)C1 [Compound A86] | 0.01 to 0.1 µM
CCn1c(-c2cnccc2COC)c2c3cc(ccc31)-c1cc(O)cc(c1)C[C@H](NC(=O)[C@H](C(C)C)N(C)C(=O)[C@H]1CCN(C(=O)/C=C/CN(C)C)C1)C(=O)N1CCC[C@H](N1)C(=O)OCC(C)(C)C2 [Compound A87] | 0.01 to 0.1 µM
CCn1c(-c2cnccc2COC)c2c3cc(ccc31)-c1cc(O)cc(c1)C[C@H](NC(=O)[C@H](C(C)C)N(C)C(=O)[C@H]1CCN(C(=O)C#CCN(C)C)C1)C(=O)N1CCC[C@H](N1)C(=O)OCC(C)(C)C2 [Compound A88] | < 0.01 µM
C=CC(=O)N1CC[C@H](C(=O)N(C)[C@H](C(=O)N[C@H]2Cc3cc(O)cc(c3)-c3ccc4c(c3)c(c(-c3ccc(N5CCN(C)CC5)nc3)n4CC)CC(C)(C)COC(=O)[C@@H]3CCCN(N3)C2=O)C(C)C)C1 [Compound A89, (2S)-N-[(8S,14S)-22-ethyl-4-hydroxy-18,18-dimethyl-21-[6-(4-methylpiperazin-1-yl)pyridin-3-yl]-9,15-dioxo-16-oxa-10,22,28-triazapentacyclo[18.5.2.1^2,^6.1^10,^14.0^23,^27]nonacosa-1(26),2,4,6(29),20,23(27),24-heptaen-8-yl]-3-methyl-2-{N-methyl-1-[(3S)-1-(prop-2-enoyl)pyrrolidin-3-yl]formamido}butanamide] | 0.01 to 0.1 µM
CCn1c(-c2ccccc2CN(C)C)c2c3cc(ccc31)-c1cc(O)cc(c1)C[C@H](NC(=O)[C@H](C(C)C)N(C)C(=O)c1nc(NC(=O)/C=C/CN(C)C)cs1)C(=O)N1CCC[C@H](N1)C(=O)OCC(C)(C)C2 [Compound A90] | > 1 µM
C=CC(=O)N1CC[C@H](C(=O)N(C)[C@H](C(=O)N[C@H]2Cc3cc(O)cc(c3)-c3ccc4c(c3)c(c(-c3cnccc3COC)n4CC)CC(C)(C)COC(=O)[C@@H]3CCCN(N3)C2=O)C(C)C)C1 [Compound A91] | < 0.01 µM
C=CC(=O)N1CC[C@H](C(=O)N(C)[C@H](C(=O)N[C@H]2Cc3cc(O)cc(c3)-c3ccc4c(c3)c(c(-c3cccnc3CN(C)C)n4CC)CC(C)(C)COC(=O)[C@@H]3CCCN(N3)C2=O)C(C)C)C1 [Compound A92] | 0.1 to 1 µM
C=CC(=O)N1CC[C@H](C(=O)N(C)[C@H](C(=O)N[C@H]2Cc3cc(O)cc(c3)-c3ccc4c(c3)c(c(-c3cccnc3COC)n4CC#N)CC(C)(C)COC(=O)[C@@H]3CCCN(N3)C2=O)C(C)C)C1 [Compound A93] | 0.01 to 0.1 µM
C=CC(=O)N1CC[C@H](C(=O)N(C)[C@H](C(=O)N[C@H]2Cc3nc(cs3)-c3ccc4c(c3)c(c(-c3cccnc3COC)n4CC)CC(C)(C)COC(=O)[C@@H]3CCCN(N3)C2=O)C(C)C)C1 [Compound A94] | 0.01 to 0.1 µM
CCn1c(-c2cccnc2COC)c2c3cc(ccc31)-c1cc(O)cc(c1)C[C@H](NC(=O)[C@H](C(C)C)N(C)C(=O)[C@H]1CCN(C(=O)C#CCN3CCOCC3)C1)C(=O)N1CCC[C@H](N1)C(=O)OCC(C)(C)C2 [Compound A95, (2S)-N-[(8S,14S)-22-ethyl-4-hydroxy-21-[2-(methoxymethyl)pyridin-3-yl]-18,18-dimethyl-9,15-dioxo-16-oxa-10,22,28-triazapentacyclo[18.5.2.1^2,^6.1^10,^14.0^23,^27]nonacosa-1(26),2,4,6(29),20,23(27),24-heptaen-8-yl]-3-methyl-2-{N-methyl-1-[(3S)-1-[4-(morpholin-4-yl)but-2-ynoyl]pyrrolidin-3-yl]formamido}butanamide] | 0.01 to 0.1 µM
CCn1c(-c2cccnc2COC)c2c3cc(ccc31)-c1cc(O)cc(c1)C[C@H](NC(=O)[C@H](C(C)C)N(C)C(=O)[C@H]1CCN(C(=O)C#CCN(C)C)C1)C(=O)N1CCC[C@H](N1)C(=O)OCC(C)(C)C2 [Compound A96] | < 0.01 µM
CCn1c(-c2cccnc2COC)c2c3cc(ccc31)-c1cc(O)cc(c1)C[C@H](NC(=O)[C@H](C(C)C)N(C)C(=O)C1CN(C(=O)C#CCN(C)C)C1)C(=O)N1CCC[C@H](N1)C(=O)OCC(C)(C)C2 [Compound A97] | 0.01 to 0.1 µM
C=CC(=O)N1CC[C@H](C(=O)N(C)[C@H](C(=O)N[C@H]2Cc3cc(O)cc(c3)-c3ccc4c(c3)c(c(-c3ccc(C5CCN(C)CC5)nc3)n4CC)CC(C)(C)COC(=O)[C@@H]3CCCN(N3)C2=O)C(C)C)C1 [Compound A98] | 0.01 to 0.1 µM
C=CC(=O)N1CC[C@H](C(=O)N(C)[C@H](C(=O)N[C@H]2Cc3cc(O)cc(c3)-c3ccc4c(c3)c(c(-c3cnn(C)c3)n4CC)CC(C)(C)COC(=O)[C@@H]3CCCN(N3)C2=O)C(C)C)C1 [Compound A99] | 0.01 to 0.1 µM
C=CC(=O)N1CC[C@H](C(=O)N(C)[C@H](C(=O)N[C@H]2Cc3cc(O)cc(c3)-c3ccc4c(c3)c(c(-c3cn(C)cn3)n4CC)CC(C)(C)COC(=O)[C@@H]3CCCN(N3)C2=O)C(C)C)C1 [Compound A113] | 0.1 to 1 µM
CC#CC(=O)N1CC[C@H](C(=O)N(C)[C@H](C(=O)N[C@H]2Cc3cc(O)cc(c3)-c3ccc4c(c3)c(c(-c3cccnc3[C@H](C)OC)n4CC)CC(C)(C)COC(=O)[C@@H]3CCCN(N3)C2=O)C(C)C)C1 [Compound A145, (2S)-2-{1-[(3S)-1-(but-2-ynoyl)pyrrolidin-3-yl]-N-methylformamido}-N-[(8S,14S,20M)-22-ethyl-4-hydroxy-21-{2-[(1S)-1-methoxyethyl]pyridin-3-yl}-18,18-dimethyl-9,15-dioxo-16-oxa-10,22,28-triazapentacyclo[18.5.2.1^2,^6.1^10,^14.0^23,^27]nonacosa-1(26),2,4,6(29),20,23(27),24-heptaen-8-yl]-3-methylbutanamide] | < 0.01 µM and 0.01 to 0.1 µM
CCn1c(-c2cncnc2C(C)C)c2c3cc(ccc31)-c1cc(O)cc(c1)C[C@H](NC(=O)[C@H](C(C)C)N(C)C(=O)[C@H]1CCN(C(=O)C#CCN(C)C)C1)C(=O)N1CCC[C@H](N1)C(=O)OCC(C)(C)C2 [Compound A155] | < 0.01 µM and 0.01 to 0.1 µM
